# Assay results reported in ChEMBL document CHEMBL1201862, “PubChem BioAssay data set” (2004).
#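 Test compounds were applied to cells in 96-well plates for 48 hours at 5 doses. At the GI50, growth is halved.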 Calls of active or inactive are those of the source. Cut-off read from the data, not from the text of the source: active = GI50 up to about 1.1 µM and inactive = higher.
# Columns and labels:
# Experiment in all cases: DTP human tumour cell line panel, 48 h
# 786-0 = tested on: 786-0
# A498 = tested on: A498
# A549 = tested on: A549
# ACHN = tested on: ACHN
# BT-549 = tested on: BT-549
# COLO 205 = tested on: COLO 205
# DU-145 = tested on: DU-145
# EKVX = tested on: EKVX
# HCC 2998 = tested on: HCC 2998
# HCT-116 = tested on: HCT-116
# HCT-15 = tested on: HCT-15
# HOP-62 = tested on: HOP-62
# HT-29 = tested on: HT-29
# Hs-578T = tested on: Hs-578T
# IGROV-1 = tested on: IGROV-1
# K562 = tested on: K562
# KM12 = tested on: KM12
# LOX IMVI = tested on: LOX IMVI
# M14 = tested on: M14
# MCF7 = tested on: MCF7
# MDA-MB-435 = tested on: MDA-MB-435
# MOLT-4 = tested on: MOLT-4
# Malme-3M = tested on: Malme-3M
# NCI-H226 = tested on: NCI-H226
# NCI-H23 = tested on: NCI-H23
# NCI-H460 = tested on: NCI-H460
# NCI/ADR-RES = tested on: NCI/ADR-RES
# OVCAR-3 = tested on: OVCAR-3
# OVCAR-4 = tested on: OVCAR-4
# OVCAR-5 = tested on: OVCAR-5
# PC-3 = tested on: PC-3
# RPMI-8226 = tested on: RPMI-8226
# SF-268 = tested on: SF-268
# SF-295 = tested on: SF-295
# SF-539 = tested on: SF-539
# SK-MEL-28 = tested on: SK-MEL-28
# SK-MEL-2 = tested on: SK-MEL-2
# SK-MEL-5 = tested on: SK-MEL-5
# SK-OV-3 = tested on: SK-OV-3
# SNB-19 = tested on: SNB-19
# SNB-75 = tested on: SNB-75
# SR = tested on: SR
# SW-620 = tested on: SW-620
# T47D = tested on: T47D
# TK-10 = tested on: TK-10
# U-251 = tested on: U-251
# UACC-257 = tested on: UACC-257
# UACC-62 = tested on: UACC-62
# UO-31 = tested on: UO-31
# CAKI-1 = tested on: CAKI-1
# CCRF-CEM = tested on: CCRF-CEM
# HL-60 = tested on: HL-60
# HOP-92 = tested on: HOP-92
# MDA-MB-231 = tested on: MDA-MB-231
# MDA-N = tested on: MDA-N
# NCI-H522 = tested on: NCI-H522
# OVCAR-8 = tested on: OVCAR-8
# RXF 393 = tested on: RXF 393
# SN12C = tested on: SN12C
smiles,measurement,setting,value
CSC1(CC(=O)N(C)C)C(=O)Nc2ccccc21 (stereo unspecified),GI50,786-0,> 100 µM (inactive)
same,GI50,A498,> 100 µM (inactive)
same,GI50,A549,> 100 µM (inactive)
same,GI50,ACHN,> 100 µM (inactive)
same,GI50,BT-549,> 100 µM (inactive)
same,GI50,COLO 205,> 100 µM (inactive)
same,GI50,DU-145,> 100 µM (inactive)
same,GI50,EKVX,> 100 µM (inactive)
same,GI50,HCC 2998,> 100 µM (inactive)
same,GI50,HCT-116,> 100 µM (inactive)
same,GI50,HCT-15,> 100 µM
same,GI50,HOP-62,> 100 µM (inactive)
same,GI50,HT-29,> 100 µM (inactive)
same,GI50,Hs-578T,> 100 µM (inactive)
same,GI50,IGROV-1,> 100 µM (inactive)
same,GI50,K562,> 100 µM (inactive)
same,GI50,KM12,> 100 µM (inactive)
same,GI50,LOX IMVI,> 100 µM (inactive)
same,GI50,M14,> 100 µM (inactive)
same,GI50,MCF7,> 100 µM (inactive)
same,GI50,MDA-MB-435,> 100 µM (inactive)
same,GI50,MOLT-4,> 100 µM (inactive)
same,GI50,Malme-3M,> 100 µM (inactive)
same,GI50,NCI-H226,> 100 µM (inactive)
same,GI50,NCI-H23,> 100 µM (inactive)
same,GI50,NCI-H460,> 100 µM (inactive)
same,GI50,NCI/ADR-RES,> 100 µM (inactive)
same,GI50,OVCAR-3,> 100 µM (inactive)
same,GI50,OVCAR-4,> 100 µM (inactive)
same,GI50,OVCAR-5,> 100 µM (inactive)
same,GI50,PC-3,> 100 µM (inactive)
same,GI50,RPMI-8226,> 100 µM (inactive)
same,GI50,SF-268,> 100 µM (inactive)
same,GI50,SF-295,> 100 µM (inactive)
same,GI50,SF-539,> 100 µM (inactive)
same,GI50,SK-MEL-28,> 100 µM (inactive)
same,GI50,SK-MEL-2,> 100 µM (inactive)
same,GI50,SK-MEL-5,> 100 µM (inactive)
same,GI50,SK-OV-3,> 100 µM (inactive)
same,GI50,SNB-19,> 100 µM (inactive)
same,GI50,SNB-75,> 100 µM (inactive)
same,GI50,SR,> 100 µM (inactive)
same,GI50,SW-620,> 100 µM (inactive)
same,GI50,T47D,> 100 µM (inactive)
same,GI50,TK-10,> 100 µM (inactive)
same,GI50,U-251,> 100 µM (inactive)
same,GI50,UACC-257,> 100 µM (inactive)
same,GI50,UACC-62,> 100 µM (inactive)
same,GI50,UO-31,> 100 µM (inactive)
CCOC(=O)N1CCC2(CC1)C[C@](Sc1ccccc1)(C(C)=O)[C@H](C)O2,GI50,786-0,> 100 µM (inactive)
same,GI50,A498,> 100 µM (inactive)
same,GI50,A549,> 100 µM (inactive)
same,GI50,ACHN,> 100 µM (inactive)
same,GI50,CAKI-1,> 100 µM (inactive)
same,GI50,CCRF-CEM,12.1 µM (inactive)
same,GI50,COLO 205,> 100 µM (inactive)
same,GI50,DU-145,> 100 µM (inactive)
same,GI50,EKVX,> 100 µM (inactive)
same,GI50,HCC 2998,> 100 µM (inactive)
same,GI50,HCT-15,> 100 µM
same,GI50,HL-60,> 100 µM (inactive)
same,GI50,HOP-62,> 100 µM (inactive)
same,GI50,HOP-92,> 100 µM (inactive)
same,GI50,HT-29,> 100 µM (inactive)
same,GI50,Hs-578T,> 100 µM (inactive)
same,GI50,IGROV-1,> 100 µM (inactive)
same,GI50,K562,> 100 µM (inactive)
same,GI50,KM12,> 100 µM (inactive)
same,GI50,LOX IMVI,> 100 µM (inactive)
same,GI50,M14,> 100 µM (inactive)
same,GI50,MCF7,> 100 µM (inactive)
same,GI50,MDA-MB-231,> 100 µM (inactive)
same,GI50,MDA-MB-435,> 100 µM (inactive)
same,GI50,MDA-N,53.5 µM (inactive)
same,GI50,MOLT-4,> 100 µM (inactive)
same,GI50,Malme-3M,> 100 µM (inactive)
same,GI50,NCI-H226,> 100 µM (inactive)
same,GI50,NCI-H23,> 100 µM (inactive)
same,GI50,NCI-H460,> 100 µM (inactive)
same,GI50,NCI-H522,> 100 µM (inactive)
same,GI50,NCI/ADR-RES,> 100 µM (inactive)
same,GI50,OVCAR-3,> 100 µM (inactive)
same,GI50,OVCAR-4,> 100 µM (inactive)
same,GI50,OVCAR-5,> 100 µM (inactive)
same,GI50,OVCAR-8,> 100 µM (inactive)
same,GI50,PC-3,> 100 µM (inactive)
same,GI50,RPMI-8226,> 100 µM (inactive)
same,GI50,RXF 393,> 100 µM (inactive)
same,GI50,SF-268,> 100 µM (inactive)
same,GI50,SF-295,> 100 µM (inactive)
same,GI50,SF-539,> 100 µM (inactive)
same,GI50,SK-MEL-28,> 100 µM (inactive)
same,GI50,SK-MEL-2,> 100 µM (inactive)
same,GI50,SK-MEL-5,> 100 µM (inactive)
same,GI50,SK-OV-3,> 100 µM (inactive)
same,GI50,SNB-19,> 100 µM (inactive)
same,GI50,SNB-75,> 100 µM (inactive)
same,GI50,SR,> 100 µM (inactive)
same,GI50,SW-620,> 100 µM (inactive)
same,GI50,T47D,> 100 µM (inactive)
same,GI50,TK-10,> 100 µM (inactive)
same,GI50,U-251,> 100 µM (inactive)
same,GI50,UACC-257,> 100 µM (inactive)
same,GI50,UACC-62,> 100 µM (inactive)
same,GI50,UO-31,> 100 µM (inactive)
Cc1ccc2c(c1)CC1(Cc3ccccc3C1=O)C2=O (stereo unspecified),GI50,786-0,> 100 µM (inactive)
same,GI50,A498,> 100 µM (inactive)
same,GI50,A549,> 100 µM (inactive)
same,GI50,ACHN,> 100 µM (inactive)
same,GI50,CCRF-CEM,> 100 µM (inactive)
same,GI50,COLO 205,> 100 µM (inactive)
same,GI50,DU-145,> 100 µM (inactive)
same,GI50,EKVX,> 100 µM (inactive)
same,GI50,HCC 2998,> 100 µM (inactive)
same,GI50,HCT-116,> 100 µM (inactive)
same,GI50,HCT-15,> 100 µM
same,GI50,HL-60,> 100 µM (inactive)
same,GI50,HOP-62,44.4 µM (inactive)
same,GI50,HOP-92,64.3 µM (inactive)
same,GI50,HT-29,> 100 µM (inactive)
same,GI50,Hs-578T,> 100 µM (inactive)
same,GI50,IGROV-1,> 100 µM (inactive)
same,GI50,K562,> 100 µM (inactive)
same,GI50,KM12,> 100 µM (inactive)
same,GI50,LOX IMVI,> 100 µM (inactive)
same,GI50,M14,> 100 µM (inactive)
same,GI50,MCF7,> 100 µM (inactive)
same,GI50,MDA-MB-231,> 100 µM (inactive)
same,GI50,MDA-MB-435,> 100 µM (inactive)
same,GI50,MDA-N,> 100 µM (inactive)
same,GI50,MOLT-4,> 100 µM (inactive)
same,GI50,Malme-3M,> 100 µM (inactive)
same,GI50,NCI-H226,> 100 µM (inactive)
same,GI50,NCI-H23,> 100 µM (inactive)
same,GI50,NCI-H460,> 100 µM (inactive)
same,GI50,NCI-H522,> 100 µM (inactive)
same,GI50,NCI/ADR-RES,> 100 µM (inactive)
same,GI50,OVCAR-3,> 100 µM (inactive)
same,GI50,OVCAR-4,> 100 µM (inactive)
same,GI50,OVCAR-5,55.6 µM (inactive)
same,GI50,OVCAR-8,> 100 µM (inactive)
same,GI50,PC-3,> 100 µM (inactive)
same,GI50,RPMI-8226,> 100 µM (inactive)
same,GI50,RXF 393,> 100 µM (inactive)
same,GI50,SF-268,> 100 µM (inactive)
same,GI50,SF-295,> 100 µM (inactive)
same,GI50,SF-539,> 100 µM (inactive)
same,GI50,SK-MEL-28,> 100 µM (inactive)
same,GI50,SK-MEL-5,> 100 µM (inactive)
same,GI50,SK-OV-3,> 100 µM (inactive)
same,GI50,SN12C,> 100 µM (inactive)
same,GI50,SNB-19,> 100 µM (inactive)
same,GI50,SNB-75,> 100 µM (inactive)
same,GI50,SR,> 100 µM (inactive)
same,GI50,SW-620,> 100 µM (inactive)
same,GI50,T47D,> 100 µM (inactive)
same,GI50,TK-10,> 100 µM (inactive)
same,GI50,U-251,> 100 µM (inactive)
same,GI50,UACC-257,> 100 µM (inactive)
same,GI50,UACC-62,> 100 µM (inactive)
same,GI50,UO-31,> 100 µM (inactive)
